Data: the NIST ThermoML archive (doi:10.1016/j.jct.2005.02.008)

Columns and labels:
[1] = Crystal; for mass density: 298.15 K, 101.33 kPa, Pycnometric method; for vapor or sublimation pressure: Calculated from knudsen effusion weight loss; for Normal melting temperature: DTA
[2] = molar heat capacity at constant pressure; details: 101.33 kPa, Crystal

c1ccc(Cc2nc3ccccc3[nH]2)cc1 [bendazol]
[1]
Details	Normal melting temperature [°C]	mass density [kg/m3]
–	297.4	1140

Details	molar heat capacity at constant pressure [J/K/mol]	vapor or sublimation pressure [kPa]
[1], 393.54 K	–	0.000125
[1], 396.81 K	–	0.000178
[1], 400.16 K	–	0.000248
[1], 402.04 K	–	0.000299
[1], 405.47 K	–	0.000419
[1], 409 K	–	0.000596
[1], 412.48 K	–	0.000829
[2], 270.15 K	215.86	–
[2], 273.15 K	218.67	–
[2], 275.15 K	220.51	–
[2], 280.15 K	223.25	–
[2], 285.15 K	227.59	–
[2], 290.15 K	228.63	–
[2], 295.15 K	228.79	–
[2], 298.15 K	228.92	–
[2], 300.15 K	229.04	–
[2], 305.15 K	231.75	–
[2], 310.15 K	233.79	–
[2], 315.15 K	237.21	–
[2], 320.15 K	240.29	–
[2], 325.15 K	244.91	–
[2], 330.15 K	248.5	–
[2], 335.15 K	252.54	–
[2], 340.15 K	255.29	–
[2], 345.15 K	260.53	–
[2], 350.15 K	261.16	–
[2], 355.15 K	264.99	–
[2], 360.15 K	269.16	–
[2], 365.15 K	272.11	–
[2], 370.15 K	283.19	–
[2], 375.15 K	285.9	–
[2], 380.15 K	289.9	–
[2], 385.15 K	293.81	–
[2], 390.15 K	298.39	–
[2], 395.15 K	303.73	–
[2], 400.15 K	307.64	–
[2], 405.15 K	312.35	–
[2], 410.15 K	314.26	–
[2], 415.15 K	322.84	–
[2], 420.15 K	329.18	–
[2], 425.15 K	333.59	–
[2], 430.15 K	342.59	–
[2], 435.15 K	349.42	–
[2], 440.15 K	359.96	–

c1ccc(-c2nc3ccccc3[nH]2)cc1 [2-phenylbenzimidazole]
[1]
Details	Normal melting temperature [°C]	mass density [kg/m3]
–	191.0	1060

[2]
Details	molar heat capacity at constant pressure [J/K/mol]
268.15 K	185.23
270.15 K	186.33
273.15 K	188.41
275.15 K	189.51
280.15 K	193.33
285.15 K	197.27
290.15 K	201.29
295.15 K	205.63
298.15 K	208.09
300.15 K	209.51
305.15 K	215.89
310.15 K	220.71
315.15 K	224.47
320.15 K	228.09
325.15 K	231.72
330.15 K	235.41
335.15 K	238.58
340.15 K	242.27
345.15 K	245.77
350.15 K	249.26
355.15 K	252.83
360.15 K	256.06
365.15 K	259.95
370.15 K	263.64
375.15 K	266.16
380.15 K	269.14
385.15 K	272.38
390.15 K	276.33
395.15 K	280.47
400.15 K	285
405.15 K	288.95
410.15 K	292.32
415.15 K	295.82
420.15 K	300.09
425.15 K	304.1
430.15 K	308.05
435.15 K	312.13
440.15 K	316.02
445.15 K	319.51
450.15 K	322.1
